Data published in patent US9326986B2, “Quinazolinone, quinolone and related analogs as sirtuin modulators” (GLAXOSMITHKLINE LLC, priority 2008, dated 2016).

Target: T1, SIRT1 (Homo sapiens, UniProt Q96EB6)
T1 sequence (Q96EB6 1-747): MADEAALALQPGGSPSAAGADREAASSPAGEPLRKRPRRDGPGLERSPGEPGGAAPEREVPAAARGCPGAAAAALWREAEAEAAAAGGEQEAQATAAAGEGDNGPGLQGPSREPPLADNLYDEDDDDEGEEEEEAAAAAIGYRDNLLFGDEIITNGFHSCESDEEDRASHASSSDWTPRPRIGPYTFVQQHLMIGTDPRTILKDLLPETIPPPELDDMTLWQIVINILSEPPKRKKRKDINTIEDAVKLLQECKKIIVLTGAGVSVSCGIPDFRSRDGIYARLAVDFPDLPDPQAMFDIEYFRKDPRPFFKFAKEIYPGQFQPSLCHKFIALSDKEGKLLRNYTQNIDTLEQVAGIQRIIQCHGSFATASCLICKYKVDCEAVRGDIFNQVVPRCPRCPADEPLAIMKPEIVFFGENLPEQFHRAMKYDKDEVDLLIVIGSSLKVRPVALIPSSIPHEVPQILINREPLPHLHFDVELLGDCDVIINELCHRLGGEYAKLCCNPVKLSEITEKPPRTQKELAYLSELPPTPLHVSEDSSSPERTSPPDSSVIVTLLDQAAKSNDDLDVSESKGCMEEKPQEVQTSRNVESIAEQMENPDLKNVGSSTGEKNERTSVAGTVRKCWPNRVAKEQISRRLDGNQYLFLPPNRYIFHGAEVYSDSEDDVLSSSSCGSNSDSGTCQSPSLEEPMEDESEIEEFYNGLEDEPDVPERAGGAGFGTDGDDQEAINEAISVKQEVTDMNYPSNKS
Test: Mass spectrometry based assay to identify modulators of SIRT1 activity (deacetylation of p53-based acetylated peptide)
Format: biochemical
Details: 10 nM SIRT1, 0.5 μM peptide substrate, 120 μM βNAD+, 25 minutes at 25° C.; for EC1.5 μM: SIRT1 activation
Source text: A mass spectrometry based assay was used to identify modulators of SIRT1 activity. The mass spectrometry based assay utilizes a peptide having 20 amino acid residues as follows: Ac-EE-K(biotin)-GQSTSSHSK(Ac)NleSTEG-K(5TMR)-EE-NH2 (SEQ ID NO: 1) wherein K(Ac) is an acetylated lysine residue and Nle is a norleucine. The peptide is labeled with the fluorophore 5TMR (excitation 540 nm/emission 580 nm) at the C-terminus. The sequence of the peptide substrate is based on p53 with several modifications. In addition, the methionine residue naturally present in the sequence was replaced with the norleucine because the methionine may be susceptible to oxidation during synthesis and purification.
The mass spectrometry assay is conducted as follows: 0.5 μM peptide substrate and 120 μM βNAD^+ is incubated with 10 nM SIRT1 for 25 minutes at 25° C. in a reaction buffer (50 mM Tris-acetate pH 8, 137 mM NaCl, 2.7 mM KCl, 1 mM MgCl2, 5 mM DTT, 0.05% BSA). Test compounds may be added to the reaction as described above. […] After the 25 minute incubation with SIRT1, 10 μL of 10% formic acid is added to stop the reaction. Reactions are sealed and frozen for later mass spec analysis. Determination of the mass of the substrate peptide allows for precise determination of the degree of acetylation (i.e. starting material) as compared to deacetylated peptide (product).
A control for inhibition of sirtuin activity is conducted by adding 1 μL of 500 mM nicotinamide as a negative control at the start of the reaction (e.g., permits determination of maximum sirtuin inhibition). A control for activation of sirtuin activity is conducted using 10 nM of sirtuin protein, with 1 μL of DMSO in place of compound, to determine the amount of deacetylation of the substrate at a given timepoint within the linear range of the assay. This timepoint is the same as that used for test compounds and, within the linear range, the endpoint represents a change in velocity.
For the above assay, SIRT1 protein was expressed and purified as follows. […] The protein was expressed by induction with 1 mM IPTG as an N-terminal His-tag fusion protein at 18° C. overnight and harvested at 30,000×g. Cells were lysed with lysozyme in lysis buffer (50 mM Tris-HCl, 2 mM Tris[2-carboxyethyl]phosphine (TCEP), 10 μM ZnCl2, 200 mM NaCl) and further treated with sonication for 10 min for complete lysis. The protein was purified over a Ni-NTA column (Amersham) and fractions containing pure protein were pooled, concentrated and run over a sizing column (Sephadex S200 26/60 global). The peak containing soluble protein was collected and run on an Ion-exchange column (MonoQ). Gradient elution (200 mM-500 mM NaCl) yielded pure protein. This protein was concentrated and dialyzed against dialysis buffer (20 mM Tris-HCl, 2 mM TCEP) overnight. The protein was aliquoted and frozen at −80° C. until further use.
Sirtuin modulating compounds that activated SIRT1 were identified using the assay described above and are shown below in Tables 1 and 2. The EC1.5 values for the activating compounds are represented by A (EC1.5<1.0 μM), B (EC1.5 1-25 μM), C (EC1.5>25 μM). The percent maximum fold activation is represented by A (Fold activation>200%) or B (Fold Activation<200%).

Row | Compound | % Fold Act. (percent maximum fold activation) | EC1.5 μM
1 | Cn1c(-c2cccc(C(F)(F)F)c2)nc2c(NS(=O)(=O)c3cccnc3)cccc2c1=O [Compound 361] | B (Fold Activation<200%) | C (EC1.5>25 μM)
2 | O=C(Nc1cccnc1)c1cccc2c(=O)cc(-c3cccc(OC(F)F)c3)[nH]c12 [Compound 443] | A (Fold activation>200%) | A (EC1.5<1.0 μM)
3 | O=C(Nc1nccs1)c1cccc2c(=O)cc(-c3ccccc3Cl)[nH]c12 [Compound 426] | A (Fold activation>200%) | A (EC1.5<1.0 μM)
4 | Cn1c(-c2cccc(C(F)(F)F)c2)nc2c(C(=O)Nc3cccc(OC[C@H](O)CO)c3)cccc2c1=O [Compound 363] | A (Fold activation>200%) | A (EC1.5<1.0 μM)
5 | Cn1ccc(C(=O)Nc2cccc3c(=O)n(C)c(-c4cccc(C(F)(F)F)c4)nc23)n1 [Compound 247] | B (Fold Activation<200%) | B (EC1.5 1-25 μM)
6 | O=C(Nc1cccc2c(=O)[nH]c(-c3cccc(C(F)F)c3)nc12)c1cnccn1 [Compound 311] | B (Fold Activation<200%) | C (EC1.5>25 μM)
7 | COc1cccc(C(=O)Nc2cccc3c(=O)cc(-c4cccc(C(F)(F)F)c4)[nH]c23)n1 [Compound 422] | A (Fold activation>200%) | A (EC1.5<1.0 μM)
8 | Cc1cc(NC(=O)c2cccc3c(=O)cc(-c4cccc(C(F)(F)F)c4)[nH]c23)on1 [Compound 406] | A (Fold activation>200%) | A (EC1.5<1.0 μM)
9 | Cn1c(-c2cccc(OC(F)(F)F)c2)nc2c(C(=O)Nc3ccccn3)cccc2c1=O [Compound 207] | A (Fold activation>200%) | A (EC1.5<1.0 μM)
10 | Cn1nccc1C(=O)Nc1cccc2c(=O)n(C)c(-c3cccc(C(F)(F)F)c3)nc12 [Compound 248] | A (Fold activation>200%) | A (EC1.5<1.0 μM)
11 | Cn1c(-c2cccc(C(F)(F)F)c2)nc2c(C(=O)Nc3ncc(CN4CCOCC4)s3)cccc2c1=O [Compound 308] | A (Fold activation>200%) | B (EC1.5 1-25 μM)
12 | Cc1ncsc1-c1nc2c(C(=O)Nc3ccccn3)cccc2c(=O)n1C [Compound 226] | B (Fold Activation<200%) | B (EC1.5 1-25 μM)
13 | Cn1c(-c2cccc(C(F)(F)F)c2)nc2c(C(=O)Nc3nnc(C(C)(C)C)s3)cccc2c1=O [Compound 297] | A (Fold activation>200%) | A (EC1.5<1.0 μM)
14 | Cn1c(-c2cnccn2)nc2c(NC(=O)c3cnccn3)cccc2c1=O [Compound 281] | B (Fold Activation<200%) | C (EC1.5>25 μM)
15 | O=C(Nc1ccccn1)c1cccc2c(=O)[nH]c(-c3cccc(OC(F)F)c3)nc12 [Compound 325] | B (Fold Activation<200%) | C (EC1.5>25 μM)
16 | Cn1c(-c2cccc(C(F)(F)F)c2)nc2c(C(=O)Nc3cccc(OCC(O)CO)c3)cccc2c1=O (centres unmarked) [Compound 286] | A (Fold activation>200%) | A (EC1.5<1.0 μM)
17 | Cn1c(-c2cccc(OC(F)(F)F)c2)nc2c(NC(=O)c3cnccn3)cccc2c1=O [Compound 204] | A (Fold activation>200%) | A (EC1.5<1.0 μM)
18 | Cn1cnc(-c2nc3c(NC(=O)c4cnccn4)cccc3c(=O)n2C)c1 [Compound 288] | B (Fold Activation<200%) | C (EC1.5>25 μM)
19 | Cc1ncoc1C(=O)Nc1cccc2c(=O)n(C)c(-c3cccc(C(F)(F)F)c3)nc12 [Compound 230] | A (Fold activation>200%) | A (EC1.5<1.0 μM)
20 | Cn1c(-c2cccc(C(F)(F)F)c2)nc2c(NC(=O)c3ccncc3)cccc2c1=O [Compound 237] | B (Fold Activation<200%) | B (EC1.5 1-25 μM)

More lines, now with the values ahead:

Row | % Fold Act. (percent maximum fold activation) | EC1.5 μM | Compound
21 | B (Fold Activation<200%) | B (EC1.5 1-25 μM) | Cn1cncc1-c1nc2c(NC(=O)c3cnccn3)cccc2c(=O)n1C [Compound 285]
22 | A (Fold activation>200%) | A (EC1.5<1.0 μM) | Cn1c(-c2cccc(C(F)(F)F)c2)nc2c(C(=O)Nc3ccnc(N4CCCC4)c3)cccc2c1=O [Compound 349]
23 | A (Fold activation>200%) | A (EC1.5<1.0 μM) | Cn1c(-c2cccc(C(F)F)c2)nc2c(NC(=O)c3cnccn3)cccc2c1=O [Compound 310]
24 | A (Fold activation>200%) | A (EC1.5<1.0 μM) | Cn1c(-c2cccc(C(F)(F)F)c2)nc2c(NC(=O)c3ccccn3)cccc2c1=O [Compound 239, N-(3-methyl-4-oxo-2-(3-(trifluoromethyl)phenyl)-3,4-dihydroquinazolin-8-yl)picolinamide]
25 | A (Fold activation>200%) | A (EC1.5<1.0 μM) | Cn1c(-c2cccc(C(F)(F)F)c2)nc2c(NC(=O)c3cccc(N4CCCC4)n3)cccc2c1=O [Compound 342]
26 | B (Fold Activation<200%) | B (EC1.5 1-25 μM) | Cn1c(-c2ccccc2)nc2c(C(=O)Nc3ccccn3)cccc2c1=O [Compound 210]
27 | B (Fold Activation<200%) | B (EC1.5 1-25 μM) | Cn1c(-c2cccc(C(F)(F)F)c2)nc2c(C(=O)Nc3cccc(N4CCCC4)n3)cccc2c1=O [Compound 350, 3-methyl-4-oxo-N-(6-(pyrrolidin-1-yl)pyridin-2-yl)-2-(3-(trifluoromethyl)phenyl)-3,4-dihydroquinazoline-8-carboxamide]
28 | A (Fold activation>200%) | A (EC1.5<1.0 μM) | Cc1nc(NC(=O)c2cccc3c(=O)n(C)c(-c4cccc(C(F)(F)F)c4)nc23)sc1C [Compound 298]
29 | A (Fold activation>200%) | A (EC1.5<1.0 μM) | O=C(Nc1cccnc1)c1cccc2c(=O)cc(-c3ccccc3OC(F)(F)F)[nH]c12 [Compound 439]
30 | B (Fold Activation<200%) | B (EC1.5 1-25 μM) | Cn1c(-c2cccc(OC(F)(F)F)c2)nc2c(C(=O)Nc3nccs3)cccc2c1=O [Compound 200]
31 | A (Fold activation>200%) | A (EC1.5<1.0 μM) | O=C(Nc1cnccn1)c1cccc2c(=O)cc(-c3cccc(OC(F)(F)F)c3)[nH]c12 [Compound 442]
